From ChEMBL document CHEMBL1201862, “PubChem BioAssay data set” (2004)
Values joined by “and” are separate entries in the source; they are usually repeats but may differ in a detail not shown here. Equal values may be shown once.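 Results reflect a 48-hour exposure of cells in 96-well plates to compound at five concentrations. Here, GI50 denotes the concentration required for 50% inhibition of growth.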 Active and inactive are the calls of the source. No stated cut-off is given here; in the data, active = GI50 up to about 1.1 µM and inactive = higher.

Assays:
Experiment in all cases: inhibition of tumour cell growth, NCI panel, 48 h
[1] = test system: NCI-H23
[2] = test system: OVCAR-4
[3] = test system: SNB-75
[4] = test system: SF-539
[5] = test system: UO-31
[6] = test system: SF-295
[7] = test system: SN12C
[8] = test system: MOLT-4
[9] = test system: U-251
[10] = test system: UACC-257
[11] = test system: CCRF-CEM
[12] = test system: SNB-19
[13] = test system: COLO 205
[14] = test system: EKVX
[15] = test system: Malme-3M
[16] = test system: SK-OV-3
[17] = test system: OVCAR-8
[18] = test system: LOX IMVI
[19] = test system: NCI-H460
[20] = test system: OVCAR-3

Measured: GI50

Cc1nn(-c2ccccc2)c(S)c1C(=O)c1ccccc1
inactive: [1] 43.5 µM | [2] 40.7 µM | [3] 42.8 µM | [4] 40.7 µM | [5] 36 µM | [6] 35.2 µM | [7] 21.2 µM | [8] 24.4 µM | [9] > 100 µM | [10] 76.2 µM | [11] 20.5 µM | [12] 41 µM | [13] 89.3 µM | [14] 18.6 µM | [15] > 100 µM | [16] > 100 µM | [17] 14.9 µM | [18] 53.6 µM

COc1ncnc2c(Cl)c(C(O)c3ccccc3)c(Cl)cc12 (configuration not stated)
inactive: [1] 41.6 µM | [2] 29.1 µM | [3] 22.4 µM | [4] 20.6 µM | [5] 37.3 µM | [6] 24.4 µM | [7] 28.1 µM | [8] 24 µM | [9] 27.3 µM | [10] > 100 µM | [12] 26.6 µM | [19] 30.8 µM | [20] 43.8 µM | [13] 29.4 µM | [14] 30.5 µM | [15] 34.6 µM | [16] 19.5 µM | [17] 30.5 µM | [18] 53.3 µM

COc1cc2cc[n+]3c(C)c4cc(OC)c(OC)cc4c([O-])c3c2cc1OC
inactive: [1] 87.7 µM | [2] 85.7 µM | [3] 33 µM | [4] 36.9 µM | [5] > 100 µM | [6] > 100 µM | [7] 32.7 µM | [8] 48.8 µM | [9] 47.1 µM | [10] 30.8 µM | [11] 27 µM | [12] > 100 µM | [19] > 100 µM | [20] 3.44 µM | [13] 12.4 µM | [14] > 100 µM | [15] 26.9 µM | [16] > 100 µM | [17] > 100 µM

COc1ccc(/C=N/n2cnc3c(c2=O)SC(=C(C#N)C#N)N3c2ccccc2)cc1
inactive: [1] > 100 µM | [3] 27.6 µM | [4] 36.2 µM | [5] > 100 µM | [6] 74.5 µM | [8] > 100 µM | [9] > 100 µM | [10] > 100 µM | [11] > 100 µM | [12] > 100 µM | [19] > 100 µM | [20] > 100 µM | [13] > 100 µM | [16] > 100 µM | [17] > 100 µM

COc1cc(C(O)(CC#N)c2cc3c(cc2Br)OCO3)cc(OC)c1OC (configuration not stated)
inactive: [1] 51.9 µM | [2] > 100 µM | [3] 65.3 µM | [4] 8.05 µM | [5] 57.5 µM | [6] 16.3 µM | [7] > 100 µM | [8] 56 µM | [9] 28.6 µM | [10] 27.9 µM | [11] 43.2 µM | [12] 27.1 µM | [19] 18.8 µM | [20] 18 µM | [13] 37.6 µM | [14] 54.1 µM | [16] 24.4 µM | [17] 44.9 µM | [18] 31.3 µM

CCOC(=O)c1ccc(N2C(=O)/C(=C/c3ccc(N(CCC#N)CCC#N)cc3)N=C2c2cc([N+](=O)[O-])ccc2Cl)cc1
inactive: [1] > 100 µM | [2] > 100 µM | [4] > 100 µM | [5] > 100 µM | [6] > 100 µM | [7] > 100 µM | [8] > 100 µM | [9] > 100 µM | [11] > 100 µM | [12] > 100 µM | [20] > 100 µM | [13] > 100 µM | [14] > 100 µM | [15] > 100 µM | [16] > 100 µM | [17] > 100 µM | [18] > 100 µM

O=C1C(Cl)N(c2ccc(Cl)cc2)C1c1c[nH]c2ccccc12 (configuration not stated)
inactive: [1] 18.4 µM | [2] 39.7 µM | [3] 19.1 µM | [4] 18.2 µM | [5] 11.6 µM | [6] 16.4 µM | [7] 17.7 µM | [8] 14.7 µM | [9] 13 µM | [10] 16.8 µM | [11] 13 µM | [12] 18.2 µM | [19] 15 µM | [20] 17.6 µM | [13] 22.5 µM | [14] 16.9 µM | [15] 12.5 µM | [16] > 10 µM | [17] 31.3 µM

O=[N+]([O-])c1ccc(-c2nc(/C=N/N3CCCCC3)cs2)o1
inactive: [1] 29.2 µM | [2] 23.6 µM | [3] > 100 µM | [4] > 100 µM | [5] > 100 µM | [6] > 100 µM | [7] 16.2 µM | [8] 26.5 µM | [9] > 100 µM | [10] 19.3 µM | [12] > 100 µM | [19] 49.2 µM | [20] 26.3 µM | [13] 30.2 µM | [14] > 100 µM | [15] 22.8 µM | [16] > 100 µM | [17] 92 µM

COC(=O)/C=C\Sc1ccn(/C=C\C(=O)OC)c(=S)n1
inactive: [1] 25.8 µM | [2] 16.9 µM | [3] 22.9 µM | [4] 18.4 µM | [5] 25.1 µM | [7] 23.6 µM | [9] 19.9 µM | [10] 28.6 µM | [11] > 100 µM | [12] 21.8 µM | [19] > 10 µM | [20] 13.8 µM | [13] 66.5 µM | [14] 26.2 µM | [15] 22.4 µM | [17] 19.2 µM | [18] 2.77 µM

C[C@@H]1C[C@]2(C[C@@H](C)[C@H]3C(C[C@@]4(C)CCC[C@@H]5C6=C[C@H](CCC34C)OC6=CC(=O)OC5(C)C)O2)OC1=O (some centres not stated)
inactive: [1] > 51.5 µM | [2] > 51.5 µM | [3] 13.1 µM | [4] > 51.5 µM | [5] > 51.5 µM | [6] > 51.5 µM | [7] > 51.5 µM | [8] > 51.5 µM | [9] > 51.5 µM | [10] > 51.5 µM | [11] > 51.5 µM | [12] > 51.5 µM | [19] > 51.5 µM | [20] > 51.5 µM | [13] > 51.5 µM | [14] > 51.5 µM | [16] > 51.5 µM | [17] > 51.5 µM | [18] > 51.5 µM

CC(Oc1ccc(Oc2cnc3ccc(Cl)cc3n2)cc1)C(=O)O (configuration not stated)
inactive: [1] > 100 µM | [2] > 100 µM | [3] 47.3 µM | [4] > 100 µM | [5] > 95.9 µM | [6] 98.9 µM | [8] 15.1 µM | [9] > 94.6 µM | [11] > 74.1 µM | [12] > 100 µM | [19] 60.4 µM and 19.6 µM | [20] > 100 µM | [13] > 70 µM | [14] > 100 µM | [15] 79.3 µM | [17] > 82.4 µM | [18] 51.8 µM
